In US8309766B2 (Obschestvo S. Organichennoi Otvetstvennostiyu …, priority 2005, dated 2012):
Where two headings read alike, the source gives them in different places.

Experiments:
mice, forced swimming = experiment: "Behavioral despair" test according to Porsolt; format: in vivo; settings: 50 mg/kg orally
Description: The “behavioral despair” test according to Porsolt [R. D. Porsolt, A. Bertin and M. Jalfre.//in mice: A primary Screening Test for Antidepressants. Arch. Int. Pharmacodyn., 1977, 229, p. 327-336] is a predictive test for drugs with antidepressant action.
Stress state in mice (weighing 27-30 grams) is induced by forced swimming. Animals are placed into a cylinder (height 25 cm, diameter 10 cm) filled to ⅓ with water at temperature 21-23° C. The animals cannot escape from the cylinder by themselves. Following a short time of activity the animals develop a so called “behavioral depression” characterized by hovering of animals, immobilization duration of which can be fixed. The experiment is carried out in two days. One a first day, animals are placed into the cylinder for 15 minutes (pre-test). After removal from water, the animals are dried and preparations under testing are administered. At 24 hours, the preparations are administered again and one hour later the animals are placed into the cylinder for 6 minutes. During first two minutes the animals are actively swimming; during the subsequent four minutes, behavioral depression develops manifested by immobilization (hovering) which is fixed for 4 minutes and is measure in seconds. Compound IX and the reference antidepressant drug Fluoxetin were administered orally at a dose 50 mg/kg.

"hot plate" test in mice = experiment: Analgetic activity on the model "hot plate"; format: in vivo, white mongrel mice; settings: 10 mg/kg; for response vs control in vivo at 10 mg/kg / change in vivo at 10 mg/kg: Mus musculus; for response vs control in vivo at 10 mg/kg: percent of background, read-out: Latent time of NT (%); for change in vivo at 10 mg/kg: read-out: Analgesia (%)
[1] = tested on: carrageenan edema of rat paw; experiment: Carrageenan edema of rat paw; format: in vivo, outbreed white rats; settings: rats; 1% ointment; 4 hours post carrageenan
Description: The tests were conducted on males of outbreed white rats weighing 250-270 grams. The model of carrageenan edema was used which model is described in Winter et al. In: DeRosa M., Giroud J. P. Willoughby D. A. Studies of the mediators of acute inflammatory response induced in rats in different sites by carrageenan and turpentine.//J. Pharmacol. 1971. V. 104. P. 15-29.
0.1 ml 1% carrageenan solution (SERVA) was subplantarly injected into a right paw of rats. The animals were placed into individual chambers. […] Paw volume was measured using a pletismometer (Ugo Besile) at 4 hours post carrageenan administration. Therapeutic effect of the ointment was assessed by the inhibition degree of inflammatory reaction as compared to an intact left paw of the given animal and to a paw reaction of a control (untreated) group of rats. Inhibition of inflammatory reaction expressed in percent was calculated according to the formula: […]

[2] = tested on: "acetic contortions" in mice; experiment: Effect on analgetic action of Tramal and Analgin on the model "acetic contortions"; format: in vivo, white mongrel mice
Description: The tests were conducted on males of white mongrel mice weighing 22-24 grams. The specific pain response (“contortions”) were elicited by intraperitoneal administration to mice of 0.75% acetic acid solution. The following signs were taken into consideration: the number of seizure contractions of abdominal muscles accompanied by stretching the hind limbs and sagging the back. Analgetic effect was assessed by decrease in the number of contortions in animals in percent to the control for 15 minutes post administration of acetic acid. The technique of the tests is disclosed in Koster R., Anderson M., de Beer B.//Fed. Proc. 1959. V. 18. P. 412. Compounds under testing were administered intraperitoneally (using a probe) at a dose 10 μg/kg 60 minutes prior to injection of the acid. Diclofenac (10 mg/kg) was used as a reference drug. Analgetic effect was calculated according to the formula: […]
The studies were carried out in accordance with the technique presented in Example 18.

[3] = IX 10 mg/kg alone (Analgin study)

## O=C(CCc1ccc(O)cc1)NCCc1ccccc1 [Compound IX, 3-(p-hydroxyphenyl)-propionylphenylethylamine]
mice, forced swimming
  % change from the control: −21%
mice, forced swimming; fixed for 4 minutes, control 195.0 ± 10.3
  immobilization time, M ± m: 154.0 ± 11.7 s
"hot plate" test in mice; 30 minutes post administration
  latent time of nociception threshold, M ± m: 8.4 ± 1.23 s
"hot plate" test in mice; 60 minutes post administration
  latent time of nociception threshold, M ± m: 7.36 ± 1.04 s
"hot plate" test in mice; 120 minutes post administration
  latent time of nociception threshold, M ± m: 9.83 ± 2.52 s
"hot plate" test in mice; 240 minutes post administration
  latent time of nociception threshold, M ± m: 7.72 ± 0.24 s
"hot plate" test in mice; 0.5 h, 30 minutes
  response vs control in vivo at 10 mg/kg: 203%
  change in vivo at 10 mg/kg: 103%
"hot plate" test in mice; 1 h, 60 minutes
  response vs control in vivo at 10 mg/kg: 178%
  change in vivo at 10 mg/kg: 77.8%
"hot plate" test in mice; 2 h, 120 minutes
  response vs control in vivo at 10 mg/kg: 237%
  change in vivo at 10 mg/kg: 137%
"hot plate" test in mice; 4 h, 240 minutes
  response vs control in vivo at 10 mg/kg: 186%
  change in vivo at 10 mg/kg: 86.5%
[1]
  Edema inhibition (%): 53.1%
  Paw volume gain (%): 32.9%
[2]; [3]
  Analgetic effect, %: 43.3%
  Number of contortions for 15 minutes, M ± m: 18.8 ± 3.1
[2]; IX 10 mg/kg, Tramal 10 mg/kg, alone or combined
  Analgetic effect, %: 33.6%
